IC50 and MIC data for seven molecules are collected here from patent EP0494622A1, “Bridged cyclic ketal derivatives” (priority 1991, dated 1992).

SMILES strings stand for the structures. Converted amounts (≈) assume the structure as drawn. Structures can show the parent of a compound that is named as a salt.

The target of one assay is T1, squalene synthase (Rattus norvegicus, UniProt Q02769).
T1 construct: from tissue; host or cells: rat liver homogenate
T1 sequence (Q02769 1-416): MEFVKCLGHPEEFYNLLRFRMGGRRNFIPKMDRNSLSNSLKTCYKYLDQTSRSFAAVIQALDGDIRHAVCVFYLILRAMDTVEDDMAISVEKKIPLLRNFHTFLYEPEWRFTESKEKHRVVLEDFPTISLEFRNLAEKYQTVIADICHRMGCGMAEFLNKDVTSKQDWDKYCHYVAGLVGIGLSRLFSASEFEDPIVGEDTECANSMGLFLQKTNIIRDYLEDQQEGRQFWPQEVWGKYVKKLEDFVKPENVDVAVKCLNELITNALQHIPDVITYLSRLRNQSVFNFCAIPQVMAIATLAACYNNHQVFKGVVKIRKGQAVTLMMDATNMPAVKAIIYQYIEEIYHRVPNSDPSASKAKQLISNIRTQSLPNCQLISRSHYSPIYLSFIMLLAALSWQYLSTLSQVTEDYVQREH
Kind of assay: Inhibition of squalene synthase in rat liver homogenate with [2-14C]farnesylpyrophosphate as substrate; [14C]squalene separated by TLC and counted by liquid scintillation. The format is biochemical. The note with it: concentration giving 50% inhibition of [14C]squalene production in a 30 minute assay, read-out: IC₅₀. On the procedure:
Acta, Volume 877, 50-60 (1986) and modified to include measurement of cholesterol by high performance liquid chromatography (h.p.l.c.).
(§1) [¹⁴C] Squalene was separated from unreacted substrate on thin layer chromatography plates and determined by liquid scintillation counting. Inhibition of squalene synthase was quantified by incubating rat liver homogenate with various concentrations of the test compound in the presence of[2-¹⁴C] farnesylpyrophosphate. The concentration of compound giving 50% inhibition of [¹⁴C] squalene production in a 30 minute assay was taken as the IC₅₀ value. […] In practice, a series of agar plates, each having the test compound incorporated at a particular concentration, was inoculated with a standard culture of a clinically relevant pathogen, for example Candida albicans, and each plate was then incubated at 37 °C for 24 to 48 hours depending on the pathogen. The plates were then examined for the presence or absence of growth of the fungus and the appropriate MIC was noted. In this test the title compounds in Examples 19, Example 3 Compound 1 and Example 7 Compound 1 had MICs in the range of 1 to 31 µg/ml against a variety of clinically relevant pathogens.

The subject of assay [1] is a variety of clinically relevant pathogens. Kind of assay: In vitro antifungal activity: minimum inhibitory concentration (MIC) on agar plates containing the test compound. It counts as cell-based. The conditions noted are these: Candida albicans, read-out: MICs. On the procedure:
as §1, with “The in vitro evaluation of the anti-fungal activity of compounds of the invention can be performed by determining the minimum inhibitory concentration (MIC) which is the concentration of the test compound in a suitable medium at which growth of a particular microorganism fails to occur. […] A. […] [¹⁴C] Squalene” for “[¹⁴C] Squalene”, “was noted.” for “was noted. In this test the title compounds in Examples 19, Example 3 Compound 1 and Example 7 Compound 1 had MICs in the range of 1 to 31 µg/ml against a variety of clinically relevant pathogens.”

As to `C=C(CC[C@]12O[C@H](CO)[C@@](O)(C(=O)O)[C@](C(=O)O)(O1)[C@H](OC(=O)/C=C/[C@@H](C)C[C@@H](C)CC)[C@H]2O)[C@@H](O)[C@H](C)Cc1ccccc1` (relative stereo) [Example 11, [1S-[1α(4R*,5S*),3α,4β,5α,6α(2E,4R*,6R*),7β]] 1-(4-Hydroxy-5-methyl-3-methylene-6-phenylhexyl)-3-hydroxymethyl-4,6,7-trihydroxy-2,8-dioxabicyclo[3.2.1]octane-4,5-dicarboxylic acid, 6-(4,6-dimethyl-2-octenoate)], the IC50 on squalene synthase is below 100 nM.
In the case of `C=C(CC[C@]12OC[C@@](O)(C(=O)O)[C@](C(=O)O)(O1)[C@H](OC(=O)/C=C/[C@@H](C)C[C@@H](C)CC)[C@H]2O)[C@@H](OC(C)=O)[C@H](C)Cc1ccccc1` (relative stereo) [Example 3 Compound 1, [1S-[1α(4R*,5S*),4β,5α,6α(2E,4R*,6R*),7β]] 1-(4-Acetyloxy-5-methyl-3-methylene-6-phenylhexyl)-4,6,7-trihydroxy-2,8-dioxabicyclo [3.2.1]octane-4,5-dicarboxylic acid, 6-(4,6-dimethyl-2-octenoate)], the MIC in assay [1] was 1 to 31 µg/mL (≈ 1.55 to 47.9 µM). Moreover, the IC50 at squalene synthase is below 100 nM.
Regarding `C=C(CC[C@]12O[C@H](CO)[C@@](O)(C(=O)O)[C@](C(=O)O)(O1)[C@H](OC(=O)CC[C@@H](C)C[C@@H](C)CC)[C@H]2O)[C@@H](O)[C@H](C)Cc1ccccc1` (relative stereo) [Example 25, [1S-[1α(4R*,5S*),3α,4β,5α,6α(4S*,6R*),7β]] 1-(4-Hydroxy-5-methyl-3-methylene-6-phenylhexyl)-3-hydroxymethyl-4,6,7-trihydroxy-2,8-dioxabicyclo[3.2.1]octane-4,5-dicarboxylic acid, 6-(4,6-dimethyloctanoate)], the IC50 on squalene synthase was below 100 nM.
On the same count and under the same terms, next, `C=C(CC[C@]12O[C@H](CO)[C@@](O)(C(=O)OC)[C@](C(=O)O)(O1)[C@H](OC(=O)/C=C/[C@@H](C)C[C@@H](C)CC)[C@H]2O)[C@@H](OC(C)=O)[C@H](C)Cc1ccccc1` (relative stereo) [Example 7 Compound 2, [1S-[1α(4R*,5S*),3α,4β,5α,6α(2E,4R*,6R*),7β]] 1-(4-acetyloxy-5-methyl-3-methylene-6-phenylhexyl)-3-hydroxymethyl-4,6,7-trihydroxy-2,8-dioxabicyclo[3.2.1]octane-4,5-dicarboxylic acid, 6-(4,6-dimethyl-2-octenoate),4-methyl ester]: below 100 nM.
In the case of `C=C(CC[C@]12O[C@H](CO)[C@@](O)(C(=O)O)[C@](C(=O)O)(O1)[C@H](OC(=O)/C=C/[C@@H](C)C[C@@H](C)CC)[C@H]2O)[C@@H](OC(C)=O)[C@H](C)Cc1ccccc1` (relative stereo) [Example 7 Compound 1, [1S-[1α(4R*,5S*),3α,4β,5α,6α(2E,4R*,6R*),7β]] 1-(4-Acetyloxy-5-methyl-3-methylene-6-phenylhexyl)-3-hydroxymethyl-4,6,7-trihydroxy-2,8-dioxabicyclo[3.2.1]octane-4,5-dicarboxylic acid, 6-(4,6-dimethyl-2-octenoate)], the MIC in assay [1] lay within 1 to 31 µg/mL (≈ 1.48 to 45.8 µM). On squalene synthase, the IC50 is below 100 nM.
With `C=C(CC[C@]12O[C@H](CO)[C@@](O)(C(=O)O)[C@](C(=O)O)(O1)[C@H](OC(=O)CC[C@@H](C)C[C@@H](C)CC)[C@H]2O)[C@@H](OC(C)=O)[C@H](C)Cc1ccccc1` (relative stereo) [Example 10, [1S-[1α(4R*,5S*),3α,4β,5α,6α(4S*,6R*),7β]] 1-(4-Acetyloxy-5-methyl-3-methylene-6-phenylhexyl)-3-hydroxymethyl-4,6,7-trihydroxy-2,8-dioxabicyclo[3.2.1]octane-4,5-dicarboxylic acid, 6-(4,6-dimethyloctanoate), dipotassium salt], the IC50 on squalene synthase is below 100 nM.
In the case of `C=C(CC[C@]12OC[C@@](O)(C(=O)OC)[C@](C(=O)O)(O1)[C@H](OC(=O)/C=C/[C@@H](C)C[C@@H](C)CC)[C@H]2O)[C@@H](OC(C)=O)[C@H](C)Cc1ccccc1` (relative stereo) [Example 3 Compound 2, [1S-[1α(4R*,5S*),4β,5α,6α(2E,4R*,6R*),7β]] 1-(4-acetyloxy-5-methyl-3-methylene-6-phenylhexyl)-4,6,7-trihydroxy-2,8-dioxabicyclo[3.2.1]octane-4,5-dicarboxylic acid, 6-(4,6-dimethyl-2-octenoate), 4-methyl ester], at squalene synthase, the IC50 is below 100 nM.
